According to PubChem BioAssay (NCI):
Several values for one entry are separate records, joined by “and”; a condition that tells them apart may be missing. Identical values can stand only once.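 Five compound concentrations were applied to cells in 96-well plates for 48 hours; endpoints were derived by simple linear interpolation of the resulting dose-response curve. Abbreviation: GI50, concentration required for 50% inhibition of growth. At the TGI there is no net growth.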 Where a SMILES comes first, the peptide text is derived from it. [ ]: non-standard residue; d: D form. Phe(F5) = N[CH](Cc1c(F)c(F)c(F)c(F)c1F)C(=O)O

What was measured:
Experiment in all cases: NCI tumour cell line growth inhibition, 48 h
SNB-75 CNS = test system: SNB-75 CNS
HOP-62 NSCLC = test system: HOP-62 NSCLC
OVCAR-8 ovarian = test system: OVCAR-8 ovarian
NCI-H226 lung = test system: NCI-H226 lung
NCI/ADR-RES ovarian = test system: NCI/ADR-RES ovarian
UACC-62 melanoma = test system: UACC-62 melanoma
OVCAR-5 ovarian = test system: OVCAR-5 ovarian
HCT-116 colon = test system: HCT-116 colon
LOX IMVI melanoma = test system: LOX IMVI melanoma
RPMI-8226 leukemia = test system: RPMI-8226 leukemia

| Compound | GI50 (SNB-75 CNS) [µM] | TGI (SNB-75 CNS) | GI50 (HOP-62 NSCLC) [µM] | TGI (HOP-62 NSCLC) | GI50 (OVCAR-8 ovarian) [µM] | TGI (OVCAR-8 ovarian) | GI50 (NCI-H226 lung) [µM] | TGI (NCI-H226 lung) | GI50 (NCI/ADR-RES ovarian) [µM] | TGI (NCI/ADR-RES ovarian) [µM] | GI50 (UACC-62 melanoma) [µM] | TGI (UACC-62 melanoma) | GI50 (OVCAR-5 ovarian) [µM] | TGI (OVCAR-5 ovarian) | GI50 (HCT-116 colon) [µM] | TGI (HCT-116 colon) | GI50 (LOX IMVI melanoma) [µM] | TGI (LOX IMVI melanoma) | GI50 (RPMI-8226 leukemia) [µM] | TGI (RPMI-8226 leukemia) [µM] |
| --- | --- | --- | --- | --- | --- | --- | --- | --- | --- | --- | --- | --- | --- | --- | --- | --- | --- | --- | --- | --- |
| CCOC(=O)Cc1c[nH]c(=S)[nH]c1=O | > 100 | > 100 µM | > 100 | > 100 µM | > 100 | > 100 µM | > 100 | > 100 µM | > 100 | > 100 | > 100 | > 100 µM | > 100 | > 100 µM | > 100 | > 100 µM | > 100 | > 100 µM | > 100 | > 100 |
| CC[C@H](Nc1nc(N)nc(C)c1C#N)c1nc2cccc(CN(C)c3ncc(C(=O)NO)cn3)c2c(=O)n1-c1ccccc1 | 0.244 | 1.82 µM | 0.804 | 4.42 µM | 0.704 | 10.3 µM | 1.18 | 7.07 µM | 11.4 | > 50 | 0.199 | 0.897 µM | 0.678 | 3.05 µM | 0.364 | 2.92 µM | 0.693 | 1.35 µM | 0.212 | > 40.8 |
| C=C(C)[C@@H]1CC=C(CO)CC1 | > 10 | > 10 µM and 374 µM | > 10 | > 10 µM and 961 µM | > 10 | > 10 µM and 857 µM | > 10 | > 10 µM and 1090 µM | – | > 10 | > 10 | > 10 µM and 964 µM | > 10 | > 10 µM and 798 µM | > 10 | > 10 µM and 627 µM | > 10 | > 10 µM and 923 µM | – | > 10 |
| CCc1ccc(NC(=O)Nc2c[nH]c3ccccc23)cc1 | 1.01 | > 26.5 µM | 16.7 | > 58.8 µM | 13.9 | > 47.5 µM | 7.29 | > 52.4 µM | 14.2 | > 62.8 | 31.5 | > 51.7 µM | 34 | > 57.9 µM | 32.9 | > 56 µM | 25.8 | > 50.2 µM | 0.567 | > 100 |
| CCN(CC)c1ccc(/C=C/c2cc(C)c3ccccc3n2)cc1 | 3.09 | 9.4 µM | 4.6 | 34.7 µM | 4.64 | 55.8 µM | 11.9 | 91.3 µM | 1.93 | 16.3 | 3.31 | 22.6 µM | 7.09 | 75.3 µM | 4.06 | 16.4 µM | 4.67 | 28.1 µM | 3.11 | 11.3 |
| CC12CCC=CC1CCC1C2CCC2(C)C(c3ccc(=O)oc3)CCC12O (stereo not drawn) | 0.0282 | 0.164 µM | 0.0511 | 0.21 µM | 0.0999 | 0.501 µM | 0.224 | 0.614 µM | 0.0475 | 0.247 | 0.221 | 0.723 µM | 0.176 | 0.485 µM | 0.0396 | 0.389 µM | 0.033 | 0.141 µM | 0.0994 | 0.777 |
| COC(=O)C(CC(C)C)NC(=O)C(Cc1cnc[nH]1)NC(=O)CNC(=O)C(NC(=O)C(C)NC(=O)C(Cc1c[nH]c2ccccc12)NC(=O)C(CCC(=O)O)NC(=O)C(N)Cc1c(F)c(F)c(F)c(F)c1F)C(C)C (stereo not drawn) (H-[Phe(F5)]EWAVGHL-OMe; configuration not given here) | – | > 100 µM | > 100 | > 100 µM | > 100 | > 100 µM | – | > 12.5 µM | – | > 12.5 | > 100 | > 100 µM | – | > 12.5 µM | > 100 | > 100 µM | – | > 12.5 µM | > 100 | > 100 |
| COc1cccc(C2=C(c3cn(C)c4ccccc34)C(=O)NC2=O)c1 | 1.32 | > 25 µM | > 22.8 | > 25 µM | 8.25 | > 25 µM | 7.96 | > 25 µM | 8.43 | > 25 | 11.5 | > 25 µM | > 25 | > 25 µM | 7.26 | > 25 µM | 13 | > 25 µM | 14.1 | > 25 |
| Cc1cc(N2CCCCC2)nc(N(CCNc2ccnc3cc(Cl)ccc23)Cc2ccco2)n1 | 1.88 | 4.33 µM | 1.73 | 3.73 µM | 1.85 | 3.68 µM | 1.69 | 3.96 µM | 1.79 | 3.71 | 1.74 | 3.34 µM | 2.4 | 6.84 µM | 1.41 | 2.84 µM | 1.66 | 3.09 µM | 2 | 4.55 |
| Fc1ccc(-c2nc3n(c2-c2ccncc2)CCS3)cc1 | > 25 | > 25 µM | > 25 | > 25 µM | > 25 | > 25 µM | > 16.4 | > 25 µM | > 25 | > 25 | > 25 | > 25 µM | > 25 | > 25 µM | > 25 | > 25 µM | > 25 | > 25 µM | > 25 | > 25 |
| COc1cc2c(cc1OC)-c1ccc3cc4c(cc3c1N(CCN1CCCC1)C2)OCO4 | 0.357 | 5.81 µM | 0.376 | 1.93 µM | 0.404 | 2.06 µM | 0.876 | 3.16 µM | 7 | 53.8 | 1.07 | 3 µM | 1.34 | 4.9 µM | 0.477 | 1.76 µM | 0.309 | 1.39 µM | 0.224 | 0.723 |
| C=C1C(=O)O[C@@H]2C1CC(=O)C(C)CC/C=C(\C)CCC[C@H](C)[C@H]2OC(C)=O (stereo partly drawn) | 14.9 | 29.8 µM | 18.2 | 33.3 µM | 17.9 | 41.1 µM | 15.1 | 30.5 µM | 15.3 | 40.9 | 11.6 | 24.5 µM | 18 | 34.6 µM | 1.62 | 3.62 µM | 2.15 | 6.22 µM | 3.99 | 19 |
